The subject of series [1] is ATF4. The series is described as follows: HEK-ATF4 High Content Imaging assay (prevention of Tunicamycin induced ISR; ATF4 signal ratio between nucleus and cytoplasm). It is filed as cell-based. In outline: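 Wild-type HEK293 cells in 0.3% FBS medium were co-treated with compounds and Tunicamycin (3.3 μM in prediluted medium, 11-fold over final) for 6 h at 37 °C. Fixed cells were immunostained for ATF4 with Hoechst nuclei; imaging gave nuclear/cytoplasmic ATF4 ratio, with nuclei counts as toxicity control.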

A short description of series [2]: Log D 7.4 assay (1-octanol / phosphate buffer pH 7.4). It is filed as physicochemical. The method, then: Phosphate buffer (1 M) was diluted to 20 mM with deionised water and adjusted to pH 7.4 (±0.05) with phosphoric acid or sodium hydroxide. A 1:1 mixture of phosphate buffer (20 mM) and 1-octanol were saturated by tumbling overnight after which time the two phases were separated. Using an automated liquid handler the following procedure was carried out: 20 mM DMSO stocks of assay and control compounds were reformatted to provide cassettes of 4 compounds per well giving a final concentration of 5 mM per compound. In duplicate 5 μL of the cassetted compounds were added to 495 μL 1-octanol (saturated with buffer) followed by 495 μL of buffer (saturated with 1-octanol) in a 96-well plate giving final incubation concentrations of 25 μM (50 μM max concentration in either layer if all compound partitioned into a single matrix). The layers were mixed by aspirating and dispensing the buffer and octanol layers into one another three times. The plate was sealed, shaken for 120 minutes and then centrifuged at 25° C. for 15 min at 4600 rpm. The 1-octanol and buffer layer were sampled separately (ensuring no cross contamination) and the respective samples diluted with 60:40 ACN:0.1 M ammonium acetate pH 7.4 (containing external standard; Sulfisoxazole, assay concentration 120 nM) to obtain final theoretical maximum concentrations of the 1-octanol layer of 0.025 μM, 0.5 μM and a buffer layer concentration of 0.5 μM. The second buffer sample was prepared by diluting the assay buffer layer with acetonitrile (containing external standard; Sulfisoxazole, assay concentration 120 nM) to give a theoretical maximum concentration of 20 μM. The analytical samples were analysed by LC-MS/MS and the Log D calculated as shown:
[formula] Where PA=Peak area and ES=External standard

Series [3] is described as follows: Thermodynamic (Equilibrium) solubility in selected buffer. The conditions noted are these: aqueous buffer, thermodynamic from solid. It is filed as physicochemical. The method, then: Protocol—Thermodynamic (Equilibrium) Solubility in Selected Buffer
Example compounds were tested in the Thermodynamic (Equilibrium) solubility in selected buffer assay. The test compound, in powder form, was weighted into a 4 mL glass vial and a calculated volume of selected medium was added to reach the target concentration of the solubility test (1 mg/mL). The solution was then stirred overnight at r.t. protected from the light. The solution was filtered through a 0.45 μm PTFE membrane at ambient temperature. An aliquot of the resulting filtrate was quantified using UPLC-UV method described below against a reference solution of the test compound, 0.8 mg/mL in DMSO. Media compositions: Phosphate buffer 50 mM (pH=2.0) […] of NaH2PO4, H2O in 200 mL of ultrapurified water adjusted at pH 2 with phosphoric acid 85%; Acetate buffer 50 mM (pH=5.5) 820 mg of anhydrous sodium acetate in 200 mL of ultrapurified water adjusted at pH 5.5 with acetic acid 99.8%; Phosphate buffer 50 mM (pH=7.4) 40.5 mL of Na2HPO4 0.1 M solution+9.5 mL of NaH2PO4 0.1 M solution. Analytical conditions: UPLC-UV-MS analyses were performed with a Waters Acquity UPLC HClass-PDA-QDa system using a reverse phase Acquity BEH C18 column (2.1 mm×50 mm, 1.7 μm; temperature: 40° C.) and a gradient of 10-95% B (A=0.1% formic acid in H2O; B=0.05% formic acid in ACN) over 1.8 min then 100% B for 0.8 min, with an injection volume of 0.4 μL at flow rate of 0.65 mL/min. UV chromatograms were recorded at 220 nm, 254 nm and 290 nm using a photo diode array detector. Mass spectra were recorded in the 150 to 900 M/Z range at a sampling rate of 10 scans per sec using a QDa detector. Data were integrated using Empower®3 software. Data Analysis: Equilibrium solubility of the test compound in the selected medium was calculated through the ratio of the surface area of the UV chromatographic peak of the compound in the filtrate to the surface of the UV chromatographic peak of the compound in the reference solution.

In series [4] the target is T1, human ERG potassium channel (hERG) (Homo sapiens, UniProt Q12809).
T1 construct: expressed in transfected cells; host or cells: HEK293, stably transfected, tetracycline-inducible promoter
T1 sequence (Q12809 whole entry): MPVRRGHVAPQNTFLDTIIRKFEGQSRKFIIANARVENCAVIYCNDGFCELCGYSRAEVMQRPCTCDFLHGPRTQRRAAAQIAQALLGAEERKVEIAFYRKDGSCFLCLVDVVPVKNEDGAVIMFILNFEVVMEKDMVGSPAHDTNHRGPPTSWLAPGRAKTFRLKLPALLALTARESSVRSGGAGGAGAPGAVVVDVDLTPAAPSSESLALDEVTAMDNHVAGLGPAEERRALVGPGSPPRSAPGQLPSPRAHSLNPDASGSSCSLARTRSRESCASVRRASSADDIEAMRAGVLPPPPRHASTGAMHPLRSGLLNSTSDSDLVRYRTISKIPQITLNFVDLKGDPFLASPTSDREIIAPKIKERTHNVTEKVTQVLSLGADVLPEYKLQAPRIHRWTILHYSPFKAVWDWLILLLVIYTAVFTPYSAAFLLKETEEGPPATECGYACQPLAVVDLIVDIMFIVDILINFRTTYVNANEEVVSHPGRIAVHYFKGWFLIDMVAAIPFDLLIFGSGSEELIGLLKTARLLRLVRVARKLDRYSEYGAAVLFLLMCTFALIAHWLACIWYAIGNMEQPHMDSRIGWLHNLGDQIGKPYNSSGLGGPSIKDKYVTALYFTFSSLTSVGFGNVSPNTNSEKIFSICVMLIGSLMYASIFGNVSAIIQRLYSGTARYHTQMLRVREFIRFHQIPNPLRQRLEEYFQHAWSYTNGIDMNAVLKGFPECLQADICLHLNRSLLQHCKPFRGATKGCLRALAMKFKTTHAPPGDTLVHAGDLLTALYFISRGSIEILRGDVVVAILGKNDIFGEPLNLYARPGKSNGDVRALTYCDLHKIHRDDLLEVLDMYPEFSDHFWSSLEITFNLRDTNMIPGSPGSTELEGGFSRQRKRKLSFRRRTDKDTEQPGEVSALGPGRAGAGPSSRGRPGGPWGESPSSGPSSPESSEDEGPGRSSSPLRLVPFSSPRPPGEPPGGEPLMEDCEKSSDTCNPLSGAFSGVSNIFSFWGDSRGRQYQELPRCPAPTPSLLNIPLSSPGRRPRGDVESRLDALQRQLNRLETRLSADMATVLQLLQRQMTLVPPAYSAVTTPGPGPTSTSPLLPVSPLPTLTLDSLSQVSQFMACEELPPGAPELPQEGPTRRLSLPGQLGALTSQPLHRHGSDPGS
The series is described as follows: hERG channel tail current recording using in vitro Rapid ICE (automated patch-clamp, QPatch HTX). In kind it is cell-based. In outline:
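Automated patch clamp on tetracycline-induced HEK293 hERG cells; pulse −80 to −50 mV 200 ms, +20 mV 4.8 s, −50 mV 5 s tail, extracellular pH 7.4. Compound at 0.3, 3, 30 μM (0.3% DMSO), 5 min exposure; tail current versus vehicle gives % inhibition and estimated IC50.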

Setting [5] is: Table 24 category key, read-out: HEK-ATF4 Activity*.
Where [6] appears, read: acetate buffer 50 mM, pH 5, Table 24, read-out: Solubility (μg/mL) pH 5.
Where [7] appears, read: phosphate buffer 50 mM, pH 2, Table 24, read-out: Solubility (μg/mL) pH 2.
Where [8] appears, read: phosphate buffer 50 mM, pH 7.4, Table 24, read-out: Solubility (μg/mL) pH 7.4.
Setting [9] is: Homo sapiens, Wild-type HEK293 cells, Tunicamycin induced ISR, 6 h, read-out: IIEK-ATF4 Activity.
[10] abbreviates: acetate buffer 50 mM, pH 5.5, Table 25, read-out: Solubility (μg/mL) pH 5.5.
The mark [11] stands for this setting: phosphate buffer 50 mM, pH 2.0, Table 25, read-out: Solubility (μg/mL) pH 2.0.
The mark [12] stands for this setting: phosphate buffer 50 mM, pH 7.4, Table 25, read-out: Solubility (μg/mL) pH 7.4.

Drawing on patent US12258338B2, “Modulators of the integrated stress response pathway” (EVOTEC INTERNATIONAL GMBH, priority 2019, dated 2025), this text covers IC50, logD and solubility for four compounds.

Each structure is given as a SMILES string. In brackets after ≈: the same amount, converted by molar mass. Like-named read-outs stand apart in the source and are kept apart here. A value given as a limit tells only on which side of the number the result lay.

Turning to `O=C(COc1ccc(Cl)c(F)c1)N[C@@H]1CC[C@@H](c2nnc([C@H]3C[C@@H](OC(F)(F)F)C3)o2)OC1` [WO201904 6779 Ex 1, reference compound], the IC50 in series [1] (setting [5]) is 0.001 to 0.5 µM; in series [4] (Table 24), 1 to 5 µM. The compound further returned a logD at 120 min in series [2] of 3.6. Moreover, the solubility in series [3] (setting [6]), in series [3] (setting [7]) and in series [3] (setting [8]) was < 1 µg/mL throughout.

Regarding `Cc1ccc(OCC(=O)N[C@H]2CC[C@H](c3nnc(OCCOC(F)(F)F)o3)NC2)cc1C` [Example 13, 2-(3,4-dimethylphenoxy)-N-[(3S,6R)-6-{5-[2-(trifluoromethoxy)ethoxy]-1,3,4-oxadiazol-2-yl}piperidin-3-yl]acetamide], the IC50 in series [1] (setting [9]) was 0.001 to 0.5 µM; in series [4] (Table 26), > 5 µM. Also, the solubility is 318 µg/mL (≈ 694 µM) in series [3] (setting [10]), 661 µg/mL (≈ 1440 µM) in series [3] (setting [11]) and 240 µg/mL (≈ 524 µM) in series [3] (setting [12]).

Turning to `CC(F)(F)CCCOc1nnc([C@H]2CC[C@H](NC(=O)COc3ccc(Cl)c(F)c3)CN2)o1` [Example 84, 2-(4-chloro-3-fluorophenoxy)-N-[(3S,6R)-6-{5-[(4,4-difluoropentyl)oxy]-1,3,4-oxadiazol-2-yl}piperidin-3-yl]acetamide], the IC50 in series [1] (setting [9]) fell in the range of 0.001 to 0.5 µM; in series [4] (Table 26), 1 to 5 µM. Moreover, the solubility in series [3] (setting [10]) came to 93 µg/mL (≈ 195 µM); in series [3] (setting [11]), 717 µg/mL (≈ 1500 µM); in series [3] (setting [12]), 62 µg/mL (≈ 130 µM).

On to `O=C(COc1ccc(Cl)c(F)c1)N[C@@H]1CC[C@@H](c2nnc(COC(F)(F)F)o2)OC1` [WO201904 6779 Ex 30, reference compound], for which the IC50 in series [1] (setting [5]) was 0.5 to 2 µM; in series [4] (Table 24) it was 0.001 to 1 µM. Besides, the logD at 120 min in series [2] was found to be 2.9. Also, the solubility in series [3] (setting [6]), in series [3] (setting [7]) and in series [3] (setting [8]) was 3 µg/mL (≈ 6.61 µM) each time.
